One molecule from patent US10906887B2, “Amino compounds for treatment of immune and inflammatory disorders” (Achillion Pharmaceuticals, Inc., priority 2015, dated 2021) can be followed below.

This assay deals with T1, Human Factor D (Homo sapiens, UniProt P00746).
T1 construct: purified from human serum
Description: Human Factor D Assay. In kind it is biochemical. As to conditions: Human Factor D 80 nM, substrate Z-L-Lys-SBzl, assay of Example 12. On the procedure: Human Factor D (purified from human serum, Complement Technology, Inc.) at 80 nM final concentration was incubated with test compound at various concentrations for 5 minutes at room temperature in 50 mM Tris, 1M NaCl, pH 7.5. A synthetic substrate Z-L-Lys-SBzl and DTNB (Ellman's reagent) are added to final concentrations of 100 μM each. Absorbance at 405 nm (A405) was recorded at 30 second intervals for 30 minutes using a microplate spectrophotometer. IC50 values are calculated by nonlinear regression of complement Factor D reaction rates as a function of test compound concentration.
The assay of Example 12 was used to determine the IC50's of the compounds. Other standard Factor D inhibition assays are also available.

T1 sequence (P00746 26-253): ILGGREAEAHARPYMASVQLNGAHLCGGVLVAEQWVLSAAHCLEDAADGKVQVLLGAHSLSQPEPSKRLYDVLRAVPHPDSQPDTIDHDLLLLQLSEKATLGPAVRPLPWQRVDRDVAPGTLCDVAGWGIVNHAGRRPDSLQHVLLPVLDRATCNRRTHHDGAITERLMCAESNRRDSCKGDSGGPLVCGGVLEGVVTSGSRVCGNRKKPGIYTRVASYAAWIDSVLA

One may read the IC50 as the midpoint of a concentration-inhibition curve. A high value points to weaker potency in that assay. Molecule `Cc1cccc(NC(=O)[C@@H]2CC=CCN2C(=O)Cn2cc(C(N)=O)c3cc(Nc4cccnn4)ccc32)n1` [compound 1, (S)-1-(2-(6-((6-methylpyridin-2-yl)carbamoyl)-5,6-dihydropyridin-1(2H)-yl)-2-oxoethyl)-5-(pyridazin-3-ylamino)-1H-indole-3-carboxamide] yielded a concentration for half-maximal inhibition (IC50) of over 10 µM.
